Measurements as given in US20160220569A1, “CDK4/6 Inhibitor Dosage Formulations For The Protection Of Hematopoietic Stem And Progenitor Cells During Chemotherapy” (G1 Therapeutics, Inc., priority 2015, published 2016).
Several values for one entry are separate records, joined by “and”; a condition that tells them apart may be missing. Equal entries are not always repeated. Where two headings read alike, the source gives them in different places.

Assays:
[1] = Red blood cell and neutrophil counts after single dose in dogs; format: in vivo; conditions: out to 15 days
[2] = Compound 1 PK dosed Days 1-5 with topotecan; format: in vivo, human; conditions: for pre-dose concentration averaging: Day 4, mean; for AUC(0-inf) / Cmax / half-life: human, plasma, intravenous; for AUC(0-inf): read-out: AUCinf; for Cmax: read-out: Cmax; for half-life: read-out: t½ (converted)
Experimental: Analysis of plasma concentration versus time data for calculation of standard pharmacokinetic (PK) parameters following intravenous infusion administration was conducted using Phoenix WinNonlin version 6.3 using a nominal infusion duration and scheduled blood sampling times.

[3] = 200 mg/m^2 with Topotecan 0.75 mg/m^2 (Cohort 3), Day 1, Max
[4] = 200 mg/m^2 with Topotecan 0.75 mg/m^2 (Cohort 3), Day 1, individual subjects
[5] = 200 mg/m^2 with Topotecan 0.75 mg/m^2 (Cohort 3), Day 4, individual subjects
[6] = 200 mg/m^2 with Topotecan 1.25 mg/m^2 (Cohort 2), Day 1, Max
[7] = 200 mg/m^2 with Topotecan 1.25 mg/m^2 (Cohort 2), Day 1, Min
[8] = 200 mg/m^2 with Topotecan 1.25 mg/m^2 (Cohort 2), Day 1, individual subjects
[9] = 200 mg/m^2 with Topotecan […]^2 (Cohort 1), Day 1, Max
[10] = 200 mg/m^2 with Topotecan […]^2 (Cohort 1), Day 1, individual subjects
[11] = 200 mg/m^2 with Topotecan 0.75 mg/m^2 (Cohort 3), Day 1, Geo. Mean
[12] = 200 mg/m^2 with Topotecan 0.75 mg/m^2 (Cohort 3), Day 1, Mean
[13] = 200 mg/m^2 with Topotecan 0.75 mg/m^2 (Cohort 3), Day 1, Median
[14] = 200 mg/m^2 with Topotecan 0.75 mg/m^2 (Cohort 3), Day 4, Geometric Mean
[15] = 200 mg/m^2 with Topotecan 0.75 mg/m^2 (Cohort 3), Day 4, Mean
[16] = 200 mg/m^2 with Topotecan 0.75 mg/m^2 (Cohort 3), Day 4, Median
[17] = 200 mg/m^2 with Topotecan 1.25 mg/m^2 (Cohort 2), Day 1, Geo. Mean

Compound: CN1CCN(c2ccc(Nc3ncc4cc5n(c4n3)C3(CCCCC3)CNC5=O)nc2)CC1 [Compound 1, 2′-((5-(4-methylpiperazin-1-yl)pyridin-2-yl)amino)-7′,8′-dihydro-6′H-spiro[cyclohexane-1,9′-pyrazino[1′,2′:1,5]pyrrolo[2,3-d]pyrimidin]-6′-one]
- effect on red blood cells and neutrophils [1]: minimal
- AUC24.5 [2, 3]: 2540 ng·h/mL
- AUCinf [2, 3]: 2660 ng·h/mL
- t½ [2, 3]: 9.24 h
- t½ ([2]; 200 mg/m^2 with Topotecan 0.75 mg/m^2 (Cohort 3), Day 1, Min): 6.64 h
- AUC24.5 [2, 4]: 2540 ng·h/mL
- AUCinf [2, 4]: 2240 ng·h/mL and 2660 ng·h/mL
- t½ [2, 4]: 6.64 h and 9.24 h and 6.69 h
- t½ ([2]; 200 mg/m^2 with Topotecan 0.75 mg/m^2 (Cohort 3), Day 4, Min): 6.87 h
- t½ [2, 5]: 9.54 h and 6.87 h
- AUC24.5 [2, 6]: 2450 ng·h/mL
- AUCinf [2, 6]: 2720 ng·h/mL
- AUC24.5 [2, 7]: 2130 ng·h/mL
- t½ [2, 7]: 6.14 h
- AUC24.5 [2, 8]: 2450 ng·h/mL and 2130 ng·h/mL
- AUCinf [2, 8]: 2720 ng·h/mL and 2430 ng·h/mL
- t½ ([2]; 200 mg/m^2 with Topotecan 1.25 mg/m^2 (Cohort 2), Day 4, Max): 10.6 h
- t½ ([2]; 200 mg/m^2 with Topotecan 1.25 mg/m^2 (Cohort 2), Day 4, Min): 7.15 h
- t½ ([2]; 200 mg/m^2 with Topotecan 1.25 mg/m^2 (Cohort 2), Day 4, individual subjects): 9.10 h and 10.6 h
- AUCinf [2, 9]: 2430 ng·h/mL
- t½ [2, 9]: 6.24 h
- t½ ([2]; 200 mg/m^2 with Topotecan […]^2 (Cohort 1), Day 1, Min): 5.60 h
- AUCinf [2, 10]: 2430 ng·h/mL
- t½ [2, 10]: 6.24 h
- t½ ([2]; 200 mg/m^2 with Topotecan […]^2 (Cohort 1), Day 4, Max): 9.15 h
- t½ ([2]; 200 mg/m^2 with Topotecan […]^2 (Cohort 1), Day 4, Min): 6.96 h
- t½ ([2]; 200 mg/m^2 with Topotecan […]^2 (Cohort 1), Day 4, individual subjects): 9.15 h
- pre-dose concentration averaging ([2]; Cohort 2 (Topotecan 1.25 mg/m^2)): 33.3 ng/mL
- pre-dose concentration averaging ([2]; Cohort 3 (Topotecan 0.75 mg/m^2)): 27.1 ng/mL
- AUC(0-inf) [2, 11]: 2170 ng·h/mL
- Cmax [2, 11]: 1060 ng/mL
- half-life [2, 11]: 7.33 h
- AUC(0-inf) [2, 12]: 2200 ng·h/mL
- Cmax [2, 12]: 1140 ng/mL
- half-life [2, 12]: 7.4 h
- AUC(0-inf) [2, 13]: 2220 ng·h/mL
- half-life [2, 13]: 6.85 h
- half-life [2, 4]: 7.01 h
- Cmax [2, 14]: 1200 ng/mL
- half-life [2, 14]: 8.69 h
- Cmax [2, 15]: 1330 ng/mL
- half-life [2, 15]: 8.81 h
- Cmax [2, 16]: 1590 ng/mL
- half-life [2, 16]: 8.82 h
- half-life [2, 5]: 10.7 h
- AUC(0-inf) [2, 17]: 2490 ng·h/mL
- Cmax [2, 17]: 895 ng/mL
- half-life [2, 17]: 7.77 h
- AUC(0-inf) ([2]; 200 mg/m^2 with Topotecan 1.25 mg/m^2 (Cohort 2), Day 1, Mean): 2490 ng·h/mL
